Source: patent US20220010019A1, “Targeting intraepithelial lymphocytes for treatment of metabolic syndrome” (The General Hospital Corporation, priority 2018, published 2022)

Test system: Ldlr−/− mice
Assay: Atherosclerotic lesion quantification in HCD-fed Ldlr−/− mice, Glp1r agonist treatment
Assay type: in vivo
Details: 8 weeks on HCD, 100 μg per kg per day via osmotic minipumps, vs PBS
Description: Glp1r agonist treatment. Ldlr−/− mice were treated with the Glp1r agonist exendin-4 (Abcam) at a dose of 100 μg per kg per day via osmotic minipumps (Alzet). After 8 weeks on a HCD, mice were euthanized for atherosclerotic lesion quantification.
Adipose tissue. iWAT and pWAT were excised, fixed in 10% formalin solution and paraffin-embedded. Haematoxylin and eosin staining was performed to assess overall tissue morphology. The adipocyte size distribution was determined with the NIH ImageJ program. Aortas. Aortic roots were dissected, embedded in Tissue-Tek OCT compound (Sakura Finetek) and frozen in 2-methylbutane (Fisher Scientific) cooled with dry ice. For comparisons of lesion sizes between the groups, sections with the maximum lesion area were used. To measure lesion volume, sections were collected at the first appearance of the aortic valves until lesions were no longer visible. Oil red O staining (Sigma-Aldrich) was performed to visualize lipid content and the lesion size was measured. To quantify lesion macrophage and smooth muscle cell content, immunohistochemistry was performed with anti-CD68 (BioLegend) and anti-Myh11 (Millipore) antibodies. […] To quantify collagen content, Masson trichrome staining (Sigma-Aldrich) was performed.

exendin-4
atherosclerosis (plaque size, oil-red O-stained aortas): attenuated atherosclerosis
